Measured values from patent US9133434B1, “Grass endophyte” (Cropmark Seeds Ltd., priority 2012, dated 2015).

Legend:
[1] = tested on: Neotyphodium uncinatum, var.UNC1; assay: Effect of benomyl on growth, comparison of varieties; assay type: cell-based; settings: comparison of the two varieties
Protocol: (§1) Plates of PDA containing different concentrations of the fungicide benomyl were prepared as outlined by Christensen et al. (1991). Benlate(Methyl[1-[(butylamino)carbonyl]-1H-benzimidazol-2-yl]carbamate) (50% WP) was added to PDA prior to sterilization. Concentrations of benomyl were adjusted to 1, 5, 10, 50 and 100 ppm. Five duplicate plates were inoculated with a colony plug.
The two varieties were similar in tested characteristics of colony sporulation, colony sectoring, colony color (upper surface), colony shape, colony immersion or margin in agar, colony texture, aerial mycelium density and type, and effect of benomyl on growth. The two varieties differed in […] and rate of growth.

[2] = tested on: Neotyphodium uncinatum, var. U2; assay: Colony: resistance to benomyl on growth (PDA plates with benomyl); assay type: cell-based; settings: benomyl 1, 5, 10, 50 and 100 ppm in PDA, recorded after 4 weeks; scale absent or very weak / weak / medium / strong / very strong
Protocol: Neotyphodium uncinatum, var. U2 was isolated from line FP102 of Festuca pratensis (Meadow fescue). Line FP102 originally came from Norway in 1999. Characteristics for Neotyphodium uncinatum, var. U2 were determined and compared with other varieties. For these tests, the endophytic fungus isolated was cultured on 1.5% (w/v) potato dextrose agar at 20° C. in the dark (Christensen M J, Latch G C M, Tapper S A 1991: Variation within isolates of Acremonium endophytes from perennial ryegrasses. Mycol. Res. 95: 918-923). Length of cultivation was generally standardized at 4 weeks, but may be varied according to the isolate. Five plates of each strain were grown.
as §1

Structure (SMILES): CCCCNC(=O)n1c(NC(=O)OC)nc2ccccc21 [benomyl, Methyl[1-[(butylamino)carbonyl]-1H-benzimidazol-2-yl]carbamate]
- effect of benomyl on growth, var.UNC1 compared with var. U2 [1]: similar
- Colony: resistance to benomyl on growth [2]: strong
